Patent US11572399B2, “Long-acting GIP peptide analogues” (University of Copenhagen, priority 2017, dated 2023)
Where two headings read alike, the source gives them in different places. Peptide text beside a SMILES is read from it. * marks the point of attachment. C16 diacid = O=C(O)CCCCCCCCCCCCCCC(=O)*; Stearoyl = CCCCCCCCCCCCCCCCCC(=O)*

Legend:
human GIP receptor [1] = molecular target: T1, human GIP receptor (Homo sapiens, UniProt P48546); assay: cAMP accumulation assay, antagonism of a GIP-mediated cAMP response (50-80% of max); assay type: cell-based; conditions: transiently transfected COS-7 cells
T1 construct: host or cells: COS-7, transient transfection (calcium phosphate), cDNA in pCMV-Script
T1 sequence (P48546 22-466): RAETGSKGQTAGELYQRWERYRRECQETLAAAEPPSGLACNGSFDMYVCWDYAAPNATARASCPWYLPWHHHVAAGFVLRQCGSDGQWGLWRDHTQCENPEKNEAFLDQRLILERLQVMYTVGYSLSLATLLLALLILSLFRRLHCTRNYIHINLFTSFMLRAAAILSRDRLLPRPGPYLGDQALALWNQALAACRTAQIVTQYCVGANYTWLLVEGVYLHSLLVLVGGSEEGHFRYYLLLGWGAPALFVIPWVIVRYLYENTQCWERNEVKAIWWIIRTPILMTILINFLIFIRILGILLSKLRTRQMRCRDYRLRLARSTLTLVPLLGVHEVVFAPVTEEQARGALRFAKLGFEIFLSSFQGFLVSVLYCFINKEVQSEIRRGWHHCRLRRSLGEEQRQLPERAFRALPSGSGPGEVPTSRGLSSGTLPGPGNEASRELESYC
Experimental: The day after, the cells were washed twice with Hepes buffered saline (HBS) buffer and incubated with HBS and 1 mM 3-isobutyl-1-methylxanthine (IBMX) for 30 min at 37° C. […] The HitHunter™ cAMP XS assay (DiscoveRx) was carried out according to the manufacturer's instructions.

human GIP receptor [2] = molecular target: T1, human GIP receptor; assay: cAMP accumulation assay, agonism (ligand alone); assay type: cell-based; conditions: Table 1; for Emax: COS-7, intrinsic cAMP activity; for cAMP agonism Emax: intrinsic cAMP activity
[3] = Table 1 and text, read-out: cAMP antagonism nM (IC50, antagonistic potency)
[4] = COS-7 cells, read-out: cAMP agonism nM (EC50)

Row | Compound | IC50 (human GIP receptor [1]; [3]) | Emax (human GIP receptor [2]; COS-7 cells) | EC50 (human GIP receptor [2]; [4]) | cAMP agonism Emax (human GIP receptor [2]; COS-7 cells) | IC50 (human GIP receptor [1]; given as log IC50 (negative sign), Table 1, read-out: cAMP antagonism log (converted)) | EC50 (human GIP receptor [2]; given as log EC50 (negative sign), read-out: cAMP agonism EC50 (log) (converted))
1 | CC[C@H](C)[C@H](NC(=O)[C@H](CO)NC(=O)[C@H](Cc1ccc(O)cc1)NC(=O)[C@H](CC(=O)O)NC(=O)[C@H](CO)NC(=O)[C@@H](NC(=O)[C@H](Cc1ccccc1)NC(=O)[C@@H](NC(=O)CNC(=O)[C@@H](N)CCC(=O)O)[C@@H](C)O)[C@@H](C)CC)C(=O)N[C@@H](C)C(=O)N[C@@H](CCSC)C(=O)N[C@@H](CC(=O)O)C(=O)N[C@@H](CCCCN)C(=O)N[C@H](C(=O)N[C@@H](Cc1c[nH]cn1)C(=O)N[C@@H](CCC(N)=O)C(=O)N[C@@H](CCC(N)=O)C(=O)N[C@@H](CC(=O)O)C(=O)N[C@@H](Cc1ccccc1)C(=O)N[C@H](C(=O)N[C@@H](CC(N)=O)C(=O)N[C@@H](Cc1c[nH]c2ccccc12)C(=O)N[C@@H](CC(C)C)C(=O)N[C@@H](CC(C)C)C(=O)N[C@@H](C)C(=O)N[C@@H](CCCCNC(=O)CCCCCCCCCCCCCCC(=O)O)C(=O)N[C@@H](CCCCN)C(N)=O)C(C)C)[C@@H](C)CC [AT318, [hGIP(3-30)NH2[Q29K]-C16diacid/29]] (H-EGTFISDYSIAMDKIHQQDFVNWLLAK(C16 diacid)K-NH2; N-terminus assumed) | 224 nM | 10.8% | 131 nM |  |  | 
2 | CCCCCCCCCCCCCCCC(=O)NCCCC[C@H](NC(=O)[C@H](CC(=O)O)NC(=O)[C@H](CCSC)NC(=O)[C@H](C)NC(=O)[C@@H](NC(=O)[C@H](CO)NC(=O)[C@H](Cc1ccc(O)cc1)NC(=O)[C@H](CC(=O)O)NC(=O)[C@H](CO)NC(=O)[C@@H](NC(=O)[C@H](Cc1ccccc1)NC(=O)[C@@H](N)[C@@H](C)O)[C@@H](C)CC)[C@@H](C)CC)C(=O)N[C@H](C(=O)N[C@@H](Cc1c[nH]cn1)C(=O)N[C@@H](CCC(N)=O)C(=O)N[C@@H](CCC(N)=O)C(=O)N[C@@H](CC(=O)O)C(=O)N[C@@H](Cc1ccccc1)C(=O)N[C@H](C(=O)N[C@@H](CC(N)=O)C(=O)N[C@@H](Cc1c[nH]c2ccccc12)C(=O)N[C@@H](CC(C)C)C(=O)N[C@@H](CC(C)C)C(=O)N[C@@H](C)C(=O)N[C@@H](CCC(N)=O)C(=O)N[C@@H](CCCCN)C(N)=O)C(C)C)[C@@H](C)CC [AT125, [hGIP(5-30)NH2—C16/16]] | 131 nM | 0% |  |  |  | 
3 | CC[C@H](C)[C@H](NC(=O)[C@H](CO)NC(=O)[C@H](Cc1ccc(O)cc1)NC(=O)[C@H](CC(=O)O)NC(=O)[C@H](CO)NC(=O)[C@@H](NC(=O)[C@H](Cc1ccccc1)NC(=O)[C@@H](NC(=O)CNC(=O)[C@@H](N)CCC(=O)O)[C@@H](C)O)[C@@H](C)CC)C(=O)N[C@@H](C)C(=O)N[C@@H](CCSC)C(=O)N[C@@H](CC(=O)O)C(=O)N[C@@H](CCCCNC(=O)CCCCCCCCCCCCCCC(=O)O)C(=O)N[C@H](C(=O)N[C@@H](Cc1c[nH]cn1)C(=O)N[C@@H](CCC(N)=O)C(=O)N[C@@H](CCC(N)=O)C(=O)N[C@@H](CC(=O)O)C(=O)N[C@@H](Cc1ccccc1)C(=O)N[C@H](C(=O)N[C@@H](CC(N)=O)C(=O)N[C@@H](Cc1c[nH]c2ccccc12)C(=O)N[C@@H](CC(C)C)C(=O)N[C@@H](CC(C)C)C(=O)N[C@@H](C)C(=O)N[C@@H](CCC(N)=O)C(=O)N[C@@H](CCCCN)C(N)=O)C(C)C)[C@@H](C)CC [AT370, [hGIP(3-30)NH2—C16diacid/16]] | 25 nM |  |  | no ag. |  | 
4 | CCCCCCCCCCCCCCCCCC(=O)NCCCC[C@H](NC(=O)[C@@H](NC(=O)[C@H](CCCCN)NC(=O)[C@H](CC(=O)O)NC(=O)[C@H](CCSC)NC(=O)[C@H](C)NC(=O)[C@@H](NC(=O)[C@H](CO)NC(=O)[C@H](Cc1ccc(O)cc1)NC(=O)[C@H](CC(=O)O)NC(=O)[C@H](CO)NC(=O)[C@@H](NC(=O)[C@H](Cc1ccccc1)NC(=O)[C@@H](N)[C@@H](C)O)[C@@H](C)CC)[C@@H](C)CC)[C@@H](C)CC)C(=O)N[C@@H](CCC(N)=O)C(=O)N[C@@H](CCC(N)=O)C(=O)N[C@@H](CC(=O)O)C(=O)N[C@@H](Cc1ccccc1)C(=O)N[C@H](C(=O)N[C@@H](CC(N)=O)C(=O)N[C@@H](Cc1c[nH]c2ccccc12)C(=O)N[C@@H](CC(C)C)C(=O)N[C@@H](CC(C)C)C(=O)N[C@@H](C)C(=O)N[C@@H](CCC(N)=O)C(=O)N[C@@H](CCCCN)C(N)=O)C(C)C [AT161, [hGIP(5-30)NH2[H18K]-C18/18]] (H-TFISDYSIAMDKIK(Stearoyl)QQDFVNWLLAQK-NH2; N-terminus assumed) | 252 nM | 7% |  |  |  | 
5 | CC[C@H](C)[C@H](NC(=O)[C@H](CO)NC(=O)[C@H](Cc1ccc(O)cc1)NC(=O)[C@H](CC(=O)O)NC(=O)[C@H](CO)NC(=O)[C@@H](NC(=O)[C@H](Cc1ccccc1)NC(=O)[C@@H](N)[C@@H](C)O)[C@@H](C)CC)C(=O)N[C@@H](C)C(=O)N[C@@H](CCSC)C(=O)N[C@@H](CC(=O)O)C(=O)N[C@@H](CCCNC(=N)N)C(=O)N[C@H](C(=O)N[C@@H](CCCCNC(=O)CCCCCCCCCCCCCCC(=O)O)C(=O)N[C@@H](CCC(N)=O)C(=O)N[C@@H](CCC(N)=O)C(=O)N[C@@H](CC(=O)O)C(=O)N[C@@H](Cc1ccccc1)C(=O)N[C@H](C(=O)N[C@@H](CC(N)=O)C(=O)N[C@@H](Cc1c[nH]c2ccccc12)C(=O)N[C@@H](CC(C)C)C(=O)N[C@@H](CC(C)C)C(=O)N[C@@H](C)C(=O)N[C@@H](CCC(N)=O)C(=O)N[C@@H](CCCNC(=N)N)C(N)=O)C(C)C)[C@@H](C)CC [AT157, [hGIP(5-30)NH2[K16R; H18K; K30R]-C16diacid/18]] (H-TFISDYSIAMDRIK(C16 diacid)QQDFVNWLLAQR-NH2; N-terminus assumed) | 7 nM | 12% |  |  | 7.94 nM | 10 nM
6 | CC[C@H](C)[C@H](NC(=O)[C@H](CCCCN)NC(=O)[C@H](CC(=O)O)NC(=O)[C@H](CCSC)NC(=O)[C@H](CCCCNC(=O)CCCCCCCCCCCCCCC(=O)O)NC(=O)[C@@H](NC(=O)[C@H](CO)NC(=O)[C@H](Cc1ccc(O)cc1)NC(=O)[C@H](CC(=O)O)NC(=O)[C@H](CO)NC(=O)[C@@H](NC(=O)[C@H](Cc1ccccc1)NC(=O)[C@@H](NC(=O)CNC(=O)[C@@H](N)CCC(=O)O)[C@@H](C)O)[C@@H](C)CC)[C@@H](C)CC)C(=O)N[C@@H](Cc1c[nH]cn1)C(=O)N[C@@H](CCC(N)=O)C(=O)N[C@@H](CCC(N)=O)C(=O)N[C@@H](CC(=O)O)C(=O)N[C@@H](Cc1ccccc1)C(=O)N[C@H](C(=O)N[C@@H](CC(N)=O)C(=O)N[C@@H](Cc1c[nH]c2ccccc12)C(=O)N[C@@H](CC(C)C)C(=O)N[C@@H](CC(C)C)C(=O)N[C@@H](C)C(=O)N[C@@H](CCC(N)=O)C(=O)N[C@@H](CCCCN)C(N)=O)C(C)C [AT304, [hGIP(3-30)NH2[A13K]-C16diacid/13]] (H-EGTFISDYSIK(C16 diacid)MDKIHQQDFVNWLLAQK-NH2; N-terminus assumed) | 199 nM |  |  | no ag. |  | 
7 | CC[C@H](C)[C@H](NC(=O)[C@H](CO)NC(=O)[C@H](Cc1ccc(O)cc1)NC(=O)[C@H](CC(=O)O)NC(=O)[C@H](CO)NC(=O)[C@@H](NC(=O)[C@H](Cc1ccccc1)NC(=O)[C@@H](NC(=O)CNC(=O)[C@@H](N)CCC(=O)O)[C@@H](C)O)[C@@H](C)CC)C(=O)N[C@@H](C)C(=O)N[C@@H](CCSC)C(=O)N[C@@H](CC(=O)O)C(=O)N[C@@H](CCCCN)C(=O)N[C@@H](CCCCNC(=O)CCCCCCCCCCCCCCC(=O)O)C(=O)N[C@@H](Cc1c[nH]cn1)C(=O)N[C@@H](CCC(N)=O)C(=O)N[C@@H](CCC(N)=O)C(=O)N[C@@H](CC(=O)O)C(=O)N[C@@H](Cc1ccccc1)C(=O)N[C@H](C(=O)N[C@@H](CC(N)=O)C(=O)N[C@@H](Cc1c[nH]c2ccccc12)C(=O)N[C@@H](CC(C)C)C(=O)N[C@@H](CC(C)C)C(=O)N[C@@H](C)C(=O)N[C@@H](CCC(N)=O)C(=O)N[C@@H](CCCCN)C(N)=O)C(C)C [AT307, [hGIP(3-30)NH2[I17K]-C16diacid/17]] (H-EGTFISDYSIAMDKK(C16 diacid)HQQDFVNWLLAQK-NH2; N-terminus assumed) | 93 nM | 4.9% | 14 nM |  |  | 
8 | CC[C@H](C)[C@H](NC(=O)[C@H](CO)NC(=O)[C@H](Cc1ccc(O)cc1)NC(=O)[C@H](CC(=O)O)NC(=O)[C@H](CCCCNC(=O)CCCCCCCCCCCCCCC(=O)O)NC(=O)[C@@H](NC(=O)[C@H](Cc1ccccc1)NC(=O)[C@@H](NC(=O)CNC(=O)[C@@H](N)CCC(=O)O)[C@@H](C)O)[C@@H](C)CC)C(=O)N[C@@H](C)C(=O)N[C@@H](CCSC)C(=O)N[C@@H](CC(=O)O)C(=O)N[C@@H](CCCCN)C(=O)N[C@H](C(=O)N[C@@H](Cc1c[nH]cn1)C(=O)N[C@@H](CCC(N)=O)C(=O)N[C@@H](CCC(N)=O)C(=O)N[C@@H](CC(=O)O)C(=O)N[C@@H](Cc1ccccc1)C(=O)N[C@H](C(=O)N[C@@H](CC(N)=O)C(=O)N[C@@H](Cc1c[nH]c2ccccc12)C(=O)N[C@@H](CC(C)C)C(=O)N[C@@H](CC(C)C)C(=O)N[C@@H](C)C(=O)N[C@@H](CCC(N)=O)C(=O)N[C@@H](CCCCN)C(N)=O)C(C)C)[C@@H](C)CC [AT299, [hGIP(3-30)NH2[S8K]-C16diacid/8]] (H-EGTFIK(C16 diacid)DYSIAMDKIHQQDFVNWLLAQK-NH2; N-terminus assumed) | 199 nM | 15.2% | 15 nM |  |  | 
